Key:
[1] = test system: patients with essential tremor; assay: T-CALM: PK/PD, Cmin versus TETRAS-PS (Hill equation); assay type: in vivo, human
Description: Pharmacodynamic variables (Response) evaluated included change from baseline in TETRAS performance subscale, TETRAS activities of daily living, TETRAS total score.

[2] = test system: patients with essential tremor; assay: T-CALM: adverse events, discontinuations, ECG; assay type: in vivo, human
Description: T-CALM employed the following dose titration scheme: Week 1 at 4 mg BID (8 mg/day), Week 2 at 8 mg BID (16 mg/day) and Weeks 3 & 4 at 10 mg BID (20 mg/day). […] Adverse Events were coded using MedDRA V20.0. Only treatment emergent adverse events with an onset date and time after the initiation of study drug until 30 days after discontinuation of drug were reported. For subjects who experience the same coded event more than once, a single event was presented. Adverse events were attributed to a study week based on the onset date, i.e. events that started on or after Visit 1 and prior to Visit 2 were classified as Study Week 1.
Electrocardiogram results were calculated as the average of the triplicate records at each time point. Baseline was defined as the mean of the triplicate values obtained pre-dose at Day 1. If this value was not available, the mean of the triplicate records obtained at screening were used.
Adverse events are characterized by maximum severity, drug-related adverse events, serious adverse events and adverse events leading to discontinuation of study.
Safety procedures involved collection of all TEAEs (treatment-emergent adverse events) coded into the Medical Dictionary for Regulatory Activities (MedDRA) version 20. Adverse events were classified by maximum severity, drug-related adverse events, serious adverse events, and adverse events leading to patient discontinuation.

[3] = test system: CYP3A4 and CYP2C9; assay: In vitro metabolism (liver microsomes, hepatocytes, recombinant CYPs, anti-CYP antibodies); assay type: in vitro ADME, human; conditions: 10 μM CX-8998
Description: Glucuronide conjugates of the oxygenated metabolites are detected in human, monkey, and dog hepatocyte preparations. […] However, the abundance of CYP3A5, CYP2C19, and CYP2D6 in human liver microsomes is low (2%-5%) relative to the primary contributors, CYP3A4 (˜30%) and CYP2C9 (˜20%). […] Information on reproductive and developmental toxicology was obtained in a 28-day pivotal female fertility study in rats and in preliminary embryo-fetal development studies in rats and rabbits.

[4] = test system: T1, CYP3A4, CYP2C8, CYP2C9, CYP2D6, CYP1A2, CYP2C19, CYP2B6; assay: CYP inhibition in human liver microsomes; assay type: in vitro ADME; conditions: human, human liver microsomes
T1 construct: other: human liver microsomes; other: human microsomes

[5] = test system: T2, major CYP isoforms (CYP1A2, CYP3A4, CYP2C8, CYP2C9, CYP2C19, CYP2D6, CYP2B6); assay: CYP inhibition in human liver microsomes; assay type: in vitro ADME; conditions: human liver microsomes; human microsomes
T2 construct: other: human liver microsomes; other: human microsomes

[6] = test system: slow wave activity; assay: PN003: polysomnogram, slow wave activity; assay type: in vivo, human; conditions: 12 mg single dose, 24 subjects, Study PN003
Description: A washout period of at least 2 weeks separated the treatment periods. […] The PSG recordings were initiated at each subject's habitual bedtime and continued for 8 hours.

[7] = rat, in vivo, 300 mg/kg/day
[8] = in vivo; conditions: male, Beagle, dog, plasma, po, 20 mg/kg/day
[9] = Cardiovascular telemetry in conscious dogs, oral; conditions: dog
[10] = test system: cardiovascular function; assay: Cardiovascular telemetry in conscious dogs, oral
[11] = Respiratory function, whole body plethysmography; conditions: female, rat; for Cmax: plasma, po
[12] = test system: respiratory function; assay: Respiratory function, whole body plethysmography; conditions: female, rat, in vivo
[13] = Exploratory embryofetal development study in rabbits
[14] = target: human peroxisome proliferator-activated receptor gamma (PPARγ) (Homo sapiens, UniProt P37231); assay: PPARγ binding
[15] = Dutch Belted rabbit, oral gavage GD 7 through GD 20

Chain of human peroxisome proliferator-activated receptor gamma (PPARγ) (P37231 whole entry): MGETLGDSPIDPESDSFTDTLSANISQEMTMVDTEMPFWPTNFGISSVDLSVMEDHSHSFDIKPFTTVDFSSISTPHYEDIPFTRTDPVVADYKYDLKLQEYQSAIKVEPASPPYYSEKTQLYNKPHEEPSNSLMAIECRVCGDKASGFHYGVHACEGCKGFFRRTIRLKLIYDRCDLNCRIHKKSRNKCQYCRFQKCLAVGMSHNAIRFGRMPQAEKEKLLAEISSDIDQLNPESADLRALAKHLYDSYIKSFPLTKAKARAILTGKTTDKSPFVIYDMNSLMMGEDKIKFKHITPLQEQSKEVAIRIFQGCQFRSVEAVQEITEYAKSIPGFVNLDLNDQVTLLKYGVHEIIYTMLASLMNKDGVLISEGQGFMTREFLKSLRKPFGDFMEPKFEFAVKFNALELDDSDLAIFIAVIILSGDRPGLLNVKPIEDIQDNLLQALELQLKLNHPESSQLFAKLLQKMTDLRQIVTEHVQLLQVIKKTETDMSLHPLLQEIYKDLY

## CC(C)c1ccc(CC(=O)N[C@H](C)c2ccc(OCC(F)(F)F)cn2)cc1 [CX-8998]
[1]; Cmin at steady state
  Emax, change from baseline in TETRAS-PS: approximately −4.1
[1]; Homo sapiens, TETRAS-PS
  EC50: ~0.25 µM
[2]; N = 48
  Discontinuation due to Nervous System Disorders, subjects n (%): 4 (8%)
  Discontinuation due to Psychiatric Disorders, subjects n (%): 4 (8%)
  Dosage reduced Due to adverse event, subjects n (%): 3 (6%)
  Dosage reduced during study, subjects n (%): 4 (8%)
  Subjects with at least 1 event leading to discontinuation, n (%): 8 (17%)
[2]; N = 48, subject had inadequate drug supply at Visit 4
  Dosage reduced Due to other reasons, subjects n (%): 1 (2%)^3
[2]; Safety Analysis Set, n = 48
  TEAE Abnormal dreams, subjects n (%): 2 (4%)
  TEAE Disturbance in attention, subjects n (%): 2 (4%)
  TEAE Dizziness, subjects n (%): 10 (21%)
  TEAE Dry mouth, subjects n (%): 2 (4%)
  TEAE Dysgeusia, subjects n (%): 2 (4%)
  TEAE Ear and Labyrinth Disorders (system organ class), subjects n (%): 2 (4%)
  TEAE Euphoric mood, subjects n (%): 3 (6%)
  TEAE Gastrointestinal Disorders (system organ class), subjects n (%): 9 (19%)
  TEAE Hallucination, subjects n (%): 2 (4%)
  TEAE Headache, subjects n (%): 4 (8%)
  TEAE Hypesthesia, subjects n (%): 0
  TEAE Infections and Infestations (system organ class), subjects n (%): 4 (8%)
  TEAE Insomnia, subjects n (%): 3 (6%)
  TEAE Nausea, subjects n (%): 1 (2%)
  TEAE Nervous System Disorders (system organ class), subjects n (%): 20 (42%)
  TEAE Paraesthesia, subjects n (%): 2 (4%)
  TEAE Somnolence, subjects n (%): 1 (2%)
  TEAE Tinnitus, subjects n (%): 2 (4%)
  TEAE Urinary Tract Infection, subjects n (%): 2 (4%)
  TEAE Vomiting, subjects n (%): 0
[2]; Safety Analysis Set, n = 48, titrated up to 10 mg BID, 4 weeks
  Subjects with at least 1 treatment-emergent adverse event, n (%): 28 (58%)
[2]; Subject 26-001, Study Day 25, from 10 mg BID to 8 mg BID, Completed study
  Adverse Event (MedDRA Preferred Term) leading to dosage reduction: Anxiety
[2]; Subject 31-023, Study Day 8, from 8 mg BID to 4 mg BID, Withdrawn (Day 8), term wraps over r24-r26: Electrocardiogram T-wave abnormal
  Adverse Event (MedDRA Preferred Term) leading to dosage reduction: Electrocardio-
[2]; Subject 33-004, Study Day 8, from 4 mg BID to 2 mg BID, Withdrawn (Day 45) Lost to follow-up
  Adverse Event (MedDRA Preferred Term) leading to dosage reduction: Headache
[2]; TEAE, n = 48
  Abnormal dreams: 2 (4%) n (%)
  Disturbance in attention: 2 (4%) n (%)
  Dizziness: 10 (21%) n (%)
  Dry mouth: 2 (4%) n (%)
  Dysgeusia: 2 (4%) n (%)
  Ear and Labyrinth Disorders: 2 (4%) n (%)
  Euphoric mood: 3 (6%) n (%)
  Gastrointestinal Disorders: 9 (19%) n (%)
  Hallucination: 2 (4%) n (%)
  Headache: 4 (8%) n (%)
  Hypesthesia: 0 n (%)
  Infections and Infestations: 4 (8%) n (%)
  Insomnia: 3 (6%) n (%)
  Nausea: 1 (2%) n (%)
  Nervous System Disorders: 20 (42%) n (%)
  Paraesthesia: 2 (4%) n (%)
  Somnolence: 1 (2%) n (%)
  Tinnitus: 2 (4%) n (%)
  Urinary Tract Infection: 2 (4%) n (%)
  Vomiting: 0 n (%)
[2]; in vivo
  Discontinuation due to adverse events: 8 (17%) n (%)
  Dosage reduction due to TEAEs: 6%
  Electrocardiogram outlier analysis: no CVS safety signals
[3]
  Inhibition of metabolism by antihuman CYP3A and CYP2C antibodies: > 90%
[4]
  IC50: 20 to 25 µM
[5]
  IC50: > 25 µM
[6]
  Slow Wave Activity during the First One-Third of the Sleep Period, Geometric Mean: 26.36 μV^2/Hz
  Slow Wave Activity during the First One-Third of the Sleep Period, Raw Value Mean: 30.51 μV^2/Hz
[7]
  Decrease in food consumption: up to 19%
[8]
  AUC: 425 µM·h
[9]; in vivo
  NOAEL: 20 mg/kg
[9]; plasma, po, 20 mg/kg
  Cmax: ~30 µM
[10]; 20 mg/kg oral
  Peak change in QT interval: -27 ms
  Peak change in heart rate: +28 beats/min
[10]; 300 mg/kg oral
  Peak decrease in QT interval: -14 ms
  Peak increase in heart rate: +47 beats/min
[10]; dog, in vivo
  NOEL: 2 mg/kg
[11]; in vivo
  NOAEL: 30 mg/kg
[11]; 300 mg/kg
  Cmax: ~28 µM
[11]; 2000 mg/kg
  Cmax: ~34 µM
[12]
  NOEL for respiratory function: < 30 mg/kg
[13]; 30, 100, or 300 mg/kg/day
  Developmental toxicity: No evidence of developmental toxicity
[13]; [15]
  dose at which maternal toxicity was excessive: 1000 mg/kg/day
  dose at which maternal toxicity was observed: ≥30 mg/kg/day and was excessive at
[13]; rabbit, in vivo
  Doses with maternal toxicity: ≥ 30 mg/kg/day

## C=C(C)c1ccc(CC(=O)N[C@H](C)c2ccc(OCC(F)(F)F)cn2)cc1 [M01]
[14]
  inhibition at 10 µM: 54%

Source: patent US11311522B1 (Cavion, Inc., priority 2018, dated 2022)
